Data reported in ChEMBL document CHEMBL5500425, “Designing Small Molecule PI3Kγ Inhibitors: A Review of Structure-Based Methods and Computational Approaches” (J Med Chem, 2024).

Columns and labels:
[1] = target: T1, Phosphatidylinositol 4,5-bisphosphate 3-kinase catalytic subunit delta isoform (Homo sapiens, UniProt O00329); assay: Inhibition of P13Kdelta (unknown origin) in the presence of ATP by scintillation proximity assay
T1 sequence (O00329 whole entry): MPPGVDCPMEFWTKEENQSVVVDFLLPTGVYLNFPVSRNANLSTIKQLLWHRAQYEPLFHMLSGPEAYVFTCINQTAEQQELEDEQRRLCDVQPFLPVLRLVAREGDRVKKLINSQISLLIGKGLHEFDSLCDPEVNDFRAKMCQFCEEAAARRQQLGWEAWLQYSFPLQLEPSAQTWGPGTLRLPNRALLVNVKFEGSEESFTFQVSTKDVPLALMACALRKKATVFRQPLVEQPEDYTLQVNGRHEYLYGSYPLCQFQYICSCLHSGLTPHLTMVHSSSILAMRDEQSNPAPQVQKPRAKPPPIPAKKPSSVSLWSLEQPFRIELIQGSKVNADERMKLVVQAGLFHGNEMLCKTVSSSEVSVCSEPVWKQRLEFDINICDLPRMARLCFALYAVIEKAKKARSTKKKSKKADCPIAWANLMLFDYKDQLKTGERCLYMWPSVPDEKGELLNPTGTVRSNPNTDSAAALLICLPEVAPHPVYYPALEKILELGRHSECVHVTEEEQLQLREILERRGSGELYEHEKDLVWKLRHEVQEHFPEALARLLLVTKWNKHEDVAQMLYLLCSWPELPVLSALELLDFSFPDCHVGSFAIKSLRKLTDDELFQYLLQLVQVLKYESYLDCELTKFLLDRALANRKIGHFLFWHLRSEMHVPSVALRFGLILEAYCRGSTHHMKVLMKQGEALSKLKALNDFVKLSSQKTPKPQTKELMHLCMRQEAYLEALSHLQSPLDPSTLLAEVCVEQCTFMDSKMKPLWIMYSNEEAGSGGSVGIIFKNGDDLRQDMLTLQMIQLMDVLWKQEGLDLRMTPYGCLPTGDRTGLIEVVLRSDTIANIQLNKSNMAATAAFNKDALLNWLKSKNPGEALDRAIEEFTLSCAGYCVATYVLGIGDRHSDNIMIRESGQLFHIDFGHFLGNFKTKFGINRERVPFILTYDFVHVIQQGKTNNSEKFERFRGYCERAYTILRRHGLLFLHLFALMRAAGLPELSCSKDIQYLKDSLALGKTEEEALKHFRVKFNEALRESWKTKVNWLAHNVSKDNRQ

[2] = target: Phosphatidylinositol 4,5-bisphosphate 3-kinase catalytic subunit alpha isoform (Homo sapiens, UniProt P42336); assay: Inhibition of PI3Kalpha (unknown origin) using […] as substrate preincubated for 10 mins followed by substrate addition by microplate reader analysis
[3] = target: T2, Phosphatidylinositol 4,5-bisphosphate 3-kinase catalytic subunit gamma isoform (Homo sapiens, UniProt P48736); assay: Inhibition of human recombinant PI3Kgamma using phosphatidylinositol as substrate in presence of [gamma33P]ATP by scintillation proximity assay
Target sequence in this assay (P48736 whole entry, looked up, canonical isoform): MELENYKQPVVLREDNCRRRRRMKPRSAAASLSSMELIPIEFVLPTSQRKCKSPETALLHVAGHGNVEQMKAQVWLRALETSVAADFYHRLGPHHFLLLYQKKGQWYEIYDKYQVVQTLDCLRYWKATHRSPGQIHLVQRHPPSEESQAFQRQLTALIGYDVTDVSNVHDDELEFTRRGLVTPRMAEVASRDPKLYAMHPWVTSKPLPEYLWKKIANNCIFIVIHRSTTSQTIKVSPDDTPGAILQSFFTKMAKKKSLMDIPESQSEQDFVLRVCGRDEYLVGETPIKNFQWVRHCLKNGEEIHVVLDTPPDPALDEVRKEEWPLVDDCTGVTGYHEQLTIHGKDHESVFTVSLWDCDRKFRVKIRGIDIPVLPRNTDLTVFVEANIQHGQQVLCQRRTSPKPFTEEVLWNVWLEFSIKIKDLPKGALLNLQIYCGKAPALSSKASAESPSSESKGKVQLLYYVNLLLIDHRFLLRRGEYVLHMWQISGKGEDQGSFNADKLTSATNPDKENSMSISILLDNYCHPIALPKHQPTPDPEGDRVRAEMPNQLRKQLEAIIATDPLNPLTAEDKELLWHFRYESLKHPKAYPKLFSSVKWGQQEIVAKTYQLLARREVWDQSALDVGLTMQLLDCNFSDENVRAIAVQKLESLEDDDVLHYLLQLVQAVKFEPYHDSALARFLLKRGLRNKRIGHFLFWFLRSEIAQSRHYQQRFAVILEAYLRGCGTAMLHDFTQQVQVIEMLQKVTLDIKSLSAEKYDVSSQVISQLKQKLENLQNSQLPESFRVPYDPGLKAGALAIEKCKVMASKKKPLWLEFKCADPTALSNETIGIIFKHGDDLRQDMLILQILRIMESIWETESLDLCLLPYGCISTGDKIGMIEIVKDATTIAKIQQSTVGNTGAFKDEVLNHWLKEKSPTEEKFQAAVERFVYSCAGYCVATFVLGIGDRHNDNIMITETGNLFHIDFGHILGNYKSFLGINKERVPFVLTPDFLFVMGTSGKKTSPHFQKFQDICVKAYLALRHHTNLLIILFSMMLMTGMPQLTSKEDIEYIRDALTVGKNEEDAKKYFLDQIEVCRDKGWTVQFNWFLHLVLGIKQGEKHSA

[4] = Oral bioavailability in rat at 10 mg/kg; type: ADME, organism-based; settings: in vivo
[5] = Inhibition of P13Kalpha (unknown origin) in the presence of ATP by scintillation proximity assay
[6] = Clearance in Beagle Dog at 1 micromol/kg, iv; type: ADME, Canis lupus familiaris; settings: in vivo, dose 1 µmol/kg
[7] = Oral bioavailability in Beagle dog at 2 mg/kg; type: ADME, organism-based, Canis lupus familiaris; settings: in vivo
[8] = target: T2, Phosphatidylinositol 4,5-bisphosphate 3-kinase catalytic subunit gamma isoform; assay: Inhibition of PI3Kgamma (unknown origin)
Target sequence in this assay (P48736 whole entry, canonical isoform): as the sequence (P48736 whole entry, looked up, canonical isoform) above

[9] = target: T1, Phosphatidylinositol 4,5-bisphosphate 3-kinase catalytic subunit delta isoform; assay: Inhibition of PI3Kdelta (unknown origin)
[10] = target: T2, Phosphatidylinositol 4,5-bisphosphate 3-kinase catalytic subunit gamma isoform; assay: Inhibition of human PI3Kgamma expressed in baculovirus infected Sf21 insect cells by ADP-Glo assay
Target sequence in this assay (P48736 whole entry, canonical isoform): as the sequence (P48736 whole entry, looked up, canonical isoform) above

[11] = target: T1, Phosphatidylinositol 4,5-bisphosphate 3-kinase catalytic subunit delta isoform; assay: Inhibition of human PI3Kdelta expressed in baculovirus infected Sf21 insect cells by ADP-Glo assay
[12] = target: Phosphatidylinositol 4,5-bisphosphate 3-kinase catalytic subunit beta isoform (Homo sapiens, UniProt P42338); assay: Inhibition of PI3Kbeta (unknown origin)
[13] = Inhibition of P13Kalpha (unknown origin)

Phosphatidylinositol 4,5-bisphosphate 3-kinase catalytic subunit alpha isoform, sequence (P42336 whole entry, canonical isoform): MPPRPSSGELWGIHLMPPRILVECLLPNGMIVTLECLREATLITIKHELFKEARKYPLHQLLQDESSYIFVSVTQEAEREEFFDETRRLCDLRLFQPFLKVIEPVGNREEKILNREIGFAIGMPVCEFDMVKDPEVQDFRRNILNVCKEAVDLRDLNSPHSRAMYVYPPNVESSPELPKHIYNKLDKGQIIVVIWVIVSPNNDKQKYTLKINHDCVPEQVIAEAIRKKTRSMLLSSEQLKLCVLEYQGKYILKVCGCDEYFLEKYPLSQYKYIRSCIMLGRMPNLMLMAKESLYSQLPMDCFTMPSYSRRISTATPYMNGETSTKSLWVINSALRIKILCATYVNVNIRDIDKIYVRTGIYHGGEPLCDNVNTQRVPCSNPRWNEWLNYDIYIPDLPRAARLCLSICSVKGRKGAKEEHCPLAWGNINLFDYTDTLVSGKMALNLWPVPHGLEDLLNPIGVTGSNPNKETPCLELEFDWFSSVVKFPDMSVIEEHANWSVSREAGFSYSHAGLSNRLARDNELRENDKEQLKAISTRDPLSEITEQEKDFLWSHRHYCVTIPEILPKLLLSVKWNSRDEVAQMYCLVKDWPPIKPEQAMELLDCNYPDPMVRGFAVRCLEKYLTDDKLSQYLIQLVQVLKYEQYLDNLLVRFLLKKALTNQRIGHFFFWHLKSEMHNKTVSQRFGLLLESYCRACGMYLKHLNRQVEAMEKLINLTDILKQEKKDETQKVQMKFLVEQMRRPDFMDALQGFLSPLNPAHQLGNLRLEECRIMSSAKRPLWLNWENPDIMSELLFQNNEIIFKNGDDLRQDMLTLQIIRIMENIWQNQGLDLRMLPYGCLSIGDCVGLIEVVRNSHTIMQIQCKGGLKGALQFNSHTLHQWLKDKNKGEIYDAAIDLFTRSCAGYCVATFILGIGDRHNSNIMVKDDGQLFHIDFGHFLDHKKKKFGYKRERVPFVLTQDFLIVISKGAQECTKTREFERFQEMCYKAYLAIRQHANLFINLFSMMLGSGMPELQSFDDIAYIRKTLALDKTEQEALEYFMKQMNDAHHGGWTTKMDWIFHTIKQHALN
Phosphatidylinositol 4,5-bisphosphate 3-kinase catalytic subunit beta isoform, sequence (P42338 whole entry, canonical isoform): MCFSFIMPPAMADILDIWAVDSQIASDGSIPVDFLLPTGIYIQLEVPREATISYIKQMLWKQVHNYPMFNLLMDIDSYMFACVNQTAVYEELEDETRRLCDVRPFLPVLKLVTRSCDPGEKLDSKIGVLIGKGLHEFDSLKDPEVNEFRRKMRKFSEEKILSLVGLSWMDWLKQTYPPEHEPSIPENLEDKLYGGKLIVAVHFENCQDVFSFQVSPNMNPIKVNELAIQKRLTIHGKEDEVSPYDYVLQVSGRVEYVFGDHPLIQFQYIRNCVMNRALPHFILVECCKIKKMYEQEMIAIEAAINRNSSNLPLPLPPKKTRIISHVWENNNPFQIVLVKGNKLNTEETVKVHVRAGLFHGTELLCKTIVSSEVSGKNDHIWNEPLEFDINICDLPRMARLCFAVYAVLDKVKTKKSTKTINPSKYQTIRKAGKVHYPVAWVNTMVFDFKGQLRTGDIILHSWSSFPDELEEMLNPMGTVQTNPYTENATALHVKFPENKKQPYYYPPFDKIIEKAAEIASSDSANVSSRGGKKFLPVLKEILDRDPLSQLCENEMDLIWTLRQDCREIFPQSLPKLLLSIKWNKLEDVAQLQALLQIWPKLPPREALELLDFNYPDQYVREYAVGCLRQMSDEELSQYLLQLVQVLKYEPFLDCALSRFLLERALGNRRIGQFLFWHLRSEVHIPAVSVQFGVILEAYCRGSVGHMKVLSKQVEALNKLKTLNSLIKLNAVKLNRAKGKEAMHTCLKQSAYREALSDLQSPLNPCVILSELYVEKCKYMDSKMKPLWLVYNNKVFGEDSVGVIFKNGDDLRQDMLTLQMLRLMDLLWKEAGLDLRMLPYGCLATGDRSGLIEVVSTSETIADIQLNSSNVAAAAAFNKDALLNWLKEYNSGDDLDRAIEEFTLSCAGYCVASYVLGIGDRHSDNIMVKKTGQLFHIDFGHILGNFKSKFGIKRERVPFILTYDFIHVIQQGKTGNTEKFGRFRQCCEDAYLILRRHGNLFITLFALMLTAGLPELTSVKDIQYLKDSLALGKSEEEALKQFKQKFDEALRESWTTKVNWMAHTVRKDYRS

With `Cc1cc(S(=O)(=O)N[C@H]2CC[C@H](O)CC2)ccc1-c1cnc2c(N)c(Cl)ccn12` as the compound, how does the IC50 [1] read?
Its IC50 is ≤ 500 nM.

With `CC1(CCn2nc(-c3ccc(Cl)c(O)c3)c3c(N)ncnc32)COC1` as the compound, how does the IC50 [2] read?
The IC50 was 172 nM.

With `Cc1nc(N)c2ncc(-c3cc(C(C)(O)CC(F)(F)F)ccc3C)n2n1` (stereo unspecified) as the compound, how does the IC50 [1] read?
The IC50 was < 2000 nM.

For `Cc1cc(C(O)(CO)C(F)F)ccc1-c1cnc(N)c(C(=O)N2CC[C@H](CO)C2)n1` (stereo partly specified), which IC50 [1] is on record?
The IC50 was < 2000 nM.

And the IC50 [3]?
Its IC50 is ≤ 100 nM.

With `Clc1ccc(Cn2cc(-c3ccnc(-c4ncc(-c5ccccc5)[nH]4)c3)cn2)cc1` as the compound, how does the IC50 [1] read?
Its IC50 is > 500 nM.

For `Cc1ncc(-c2cc(-c3ccc(S(=O)(=O)NCC(C)(C)O)cc3C)cnc2N)o1`, which IC50 [3] is on record?
Its IC50 is 40 nM.

And the bioavailability [4]?
The bioavailability was 72%.

And the IC50 [5]?
The IC50 was 300 nM.

With `CC(=O)Nc1nc(C)c(-c2cc3c(c(S(C)(=O)=O)c2)C(=O)N([C@@H](C)C2CC2)C3)s1` as the compound, how does the clearance [6] read?
Its clearance is 3.3 mL/min/kg.

And the bioavailability [7]?
Its bioavailability is 82%.

What does the source list for `CC(NC(=O)c1c(N)nn2cccnc12)c1cc(Cl)c2c(C#N)ncn2c1N1CCS(=O)(=O)C(C)C1` (stereo unspecified)?
IC50 [8]: < 100 nM; IC50 [9]: < 2000 nM

With `Cc1cc(S(=O)(=O)N[C@H]2CC[C@H](O)CC2)ccc1-c1cnc(N)c(C(=O)C2CC2)n1` as the compound, how does the IC50 [3] read?
Its IC50 is 24 nM.

What about the bioavailability [4] of the same compound?
Its bioavailability is 23%.

What about the IC50 [5] of the same compound?
The IC50 was 110 nM.

For `COc1cncc(-c2ccc3nc(-c4nc5c(C)cccc5[nH]4)oc3c2)c1`, which IC50 [10] is on record?
Its IC50 is < 250 nM.

And the IC50 [11]?
The IC50 was ≥ 5000 nM.

Which IC50 [1] does the source give for `Cc1nnc(-c2cc(-c3cc4c(c(S(C)(=O)=O)c3)C(=O)N([C@@H](C)C3CC3)C4)ccn2)[nH]1` here?
Its IC50 is < 2000 nM.

Which results are given for `CC(=O)c1c(C)n(-c2ccc(C)cc2)c2ccc(OCC(O)CNCc3ccc(Cl)cc3)cc12` (stereo unspecified)?
IC50 [12]: > 20000 nM; IC50 [13]: > 20000 nM
